Reference: PubChem BioAssay AID2060493 (Molecular Pharmacology Branch, DTP, NCI, 2025)

Test system: 616215-338-R-J1-PDC tumor spheroids, viability
Test: Anticancer human tumor 616215-338-R-J1-PDC patient-derived colon adenocarcinoma cell line growth inhibition [GQUAD]
Conditions: spheroids with HUVEC and MSC; for IC50: curve of first compound; for viability, T/C: stronger effect = lower value
Method in brief: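 Viability of tumor cells grown as complex spheroids with endothelial and stromal cells, exposed to drug combinations. Top concentration at or near clinical Cmax (else 10 microM), diluted in half-log increments.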
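Also: spheroids exposed to agents for 7 days before readout.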
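For viability, T/C in this document: percent viability relative to DMSO vehicle control wells taken as 100%.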

**Q.** How did the IC50 (second compound 0.0316 µM) turn out when `COc1ncnc(C2CC2)c1-c1ncc2cnn(Cc3ccc(-c4nc(C(F)(F)F)cn4C(C)C)cc3)c2n1` + Cc1cnc(CNC(=O)c2c(=O)c3ccc(N4CCCN(C)CC4)nc3n3c2sc2ccccc23)cn1 was run?
**A.** The IC50 was greater than 10000 nM.

**Q.** And the IC50 (second compound 0.1 µM)?
**A.** Its IC50 is greater than 10000 nM.

**Q.** What about the IC50 (second compound 0.316 µM) of the same compound?
**A.** Its IC50 is less than 31.6 nM.

**Q.** What about the IC50 (second compound 1 µM) of the same compound?
**A.** Its IC50 is less than 31.6 nM.

**Q.** What about the IC50 (second compound 3.16 µM) of the same compound?
**A.** Its IC50 is less than 31.6 nM.

**Q.** What about the IC50 (second compound 10 µM) of the same compound?
**A.** Its IC50 is less than 31.6 nM.

**Q.** What about the viability, T/C (second compound 0.0316 µM, first compound 0.0316 µM) of the same compound?
**A.** The viability, T/C was 108%.

**Q.** And the viability, T/C (second compound 0.0316 µM, first compound 0.1 µM)?
**A.** The viability, T/C was 98.7%.

**Q.** What about the viability, T/C (second compound 0.0316 µM, first compound 0.316 µM) of the same compound?
**A.** Its viability, T/C is 113%.

**Q.** What about the viability, T/C (second compound 0.0316 µM, first compound 1 µM) of the same compound?
**A.** The viability, T/C was 97.2%.

**Q.** And the viability, T/C (second compound 0.0316 µM, first compound 3.16 µM)?
**A.** The viability, T/C was 108%.

**Q.** What about the viability, T/C (second compound 0.0316 µM, first compound 10 µM) of the same compound?
**A.** The viability, T/C was 100%.

**Q.** And the viability, T/C (second compound 0.1 µM, first compound 0.0316 µM)?
**A.** The viability, T/C was 70.8%.

**Q.** And the viability, T/C (second compound 0.1 µM, first compound 0.1 µM)?
**A.** The viability, T/C was 72.2%.

**Q.** And the viability, T/C (second compound 0.1 µM, first compound 0.316 µM)?
**A.** Its viability, T/C is 62.1%.

**Q.** What about the viability, T/C (second compound 0.1 µM, first compound 1 µM) of the same compound?
**A.** The viability, T/C was 57.5%.

**Q.** And the viability, T/C (second compound 0.1 µM, first compound 3.16 µM)?
**A.** Its viability, T/C is 64.2%.

**Q.** What about the viability, T/C (second compound 0.1 µM, first compound 10 µM) of the same compound?
**A.** Its viability, T/C is 58.3%.

**Q.** What about the viability, T/C (second compound 0.316 µM, first compound 0.0316 µM) of the same compound?
**A.** Its viability, T/C is 48.9%.

**Q.** What about the viability, T/C (second compound 0.316 µM, first compound 0.1 µM) of the same compound?
**A.** The viability, T/C was 46%.

**Q.** And the viability, T/C (second compound 0.316 µM, first compound 0.316 µM)?
**A.** The viability, T/C was 34.3%.

**Q.** And the viability, T/C (second compound 0.316 µM, first compound 1 µM)?
**A.** The viability, T/C was 34.8%.

**Q.** What about the viability, T/C (second compound 0.316 µM, first compound 3.16 µM) of the same compound?
**A.** The viability, T/C was 41.4%.

**Q.** What about the viability, T/C (second compound 0.316 µM, first compound 10 µM) of the same compound?
**A.** The viability, T/C was 66.7%.

**Q.** And the viability, T/C (second compound 1 µM, first compound 0.0316 µM)?
**A.** Its viability, T/C is 22.7%.

**Q.** And the viability, T/C (second compound 1 µM, first compound 0.1 µM)?
**A.** The viability, T/C was 35.4%.

**Q.** What about the viability, T/C (second compound 1 µM, first compound 0.316 µM) of the same compound?
**A.** Its viability, T/C is 36.1%.

**Q.** What about the viability, T/C (second compound 1 µM, first compound 1 µM) of the same compound?
**A.** The viability, T/C was 32.6%.

**Q.** What about the viability, T/C (second compound 1 µM, first compound 3.16 µM) of the same compound?
**A.** Its viability, T/C is 34.3%.

**Q.** What about the viability, T/C (second compound 1 µM, first compound 10 µM) of the same compound?
**A.** Its viability, T/C is 31.3%.

**Q.** What about the viability, T/C (second compound 3.16 µM, first compound 0.0316 µM) of the same compound?
**A.** Its viability, T/C is 23%.

**Q.** And the viability, T/C (second compound 3.16 µM, first compound 0.1 µM)?
**A.** Its viability, T/C is 28.7%.

**Q.** And the viability, T/C (second compound 3.16 µM, first compound 0.316 µM)?
**A.** The viability, T/C was 22.4%.

**Q.** And the viability, T/C (second compound 3.16 µM, first compound 1 µM)?
**A.** The viability, T/C was 26.7%.

**Q.** What about the viability, T/C (second compound 3.16 µM, first compound 3.16 µM) of the same compound?
**A.** The viability, T/C was 40.3%.

**Q.** What about the viability, T/C (second compound 3.16 µM, first compound 10 µM) of the same compound?
**A.** The viability, T/C was 27.1%.

**Q.** And the viability, T/C (second compound 10 µM, first compound 0.0316 µM)?
**A.** The viability, T/C was 13.8%.

**Q.** What about the viability, T/C (second compound 10 µM, first compound 0.1 µM) of the same compound?
**A.** The viability, T/C was 28.4%.

**Q.** What about the viability, T/C (second compound 10 µM, first compound 0.316 µM) of the same compound?
**A.** Its viability, T/C is 21.3%.

**Q.** What about the viability, T/C (second compound 10 µM, first compound 1 µM) of the same compound?
**A.** The viability, T/C was 25.5%.

**Q.** What about the viability, T/C (second compound 10 µM, first compound 3.16 µM) of the same compound?
**A.** Its viability, T/C is 35.1%.

**Q.** And the viability, T/C (second compound 10 µM, first compound 10 µM)?
**A.** Its viability, T/C is 22.1%.
